# Experimental data taken from PMC4303209, “A novel phosphatidylinositol 3-kinase (PI3K) inhibitor directs a potent FOXO-dependent, p53-independent cell cycle arrest phenotype characterized by the differential induction of a subset of FOXO-regulated genes” (Breast Cancer Research : BCR, 2014).
# Tested on: MCF-7 breast cancer cells
# Assay: Microarray gene expression analysis (Agilent whole human genome 4 x 44K; compound vs DMSO, LIMMA log2 fold change)
# Assay type: cell-based
# [1] = MCF-7, 100nM, six hours, 1.5-fold expression change threshold
smiles,measurement,setting,value
Oc1cccc(-c2nc(N3CCOCC3)c3oc4ncccc4c3n2)c1 [PI-103],ESCO1 log2FC,"Gene 114799, cell cycle genes",0.45
same,UHRF2 log2FC,"Gene 115426, cell cycle genes",0.51
same,KLHDC3 log2FC,"Gene 116138, cell cycle genes",0.0341
same,CNTROB log2FC,"Gene 116840, cell cycle genes",0.23
same,NEDD1 log2FC,"Gene 121441, cell cycle genes",0.35
same,HEXIM2 log2FC,"Gene 124790, cell cycle genes",0.87
same,ARL8A log2FC,"Gene 127829, cell cycle genes",0.56
same,UHMK1 log2FC,"Gene 127933, cell cycle genes",-0.17
same,IQGAP3 log2FC,"Gene 128239, cell cycle genes",0.35
same,NUP35 log2FC,"Gene 129401, cell cycle genes",-0.36
same,MITD1 log2FC,"Gene 129531, cell cycle genes",0.71
same,NUDT16 log2FC,"Gene 131870, cell cycle genes",-0.23
same,ZFP42 log2FC,"Gene 132625, cell cycle genes",-0.0323
same,JMY log2FC,"Gene 133746, cell cycle genes",1.01
same,HUS1B log2FC,"Gene 135458, cell cycle genes",-0.84
same,NEK7 log2FC,"Gene 140609, cell cycle genes",0.11
same,CTCFL log2FC,"Gene 140690, cell cycle genes",-0.0211
same,PSMA8 log2FC,"Gene 143471, cell cycle genes",0.0738
same,SESN3 log2FC,"Gene 143686, cell cycle genes",0.12
same,PIWIL4 log2FC,"Gene 143689, cell cycle genes",0.27
same,E2F7 log2FC,"Gene 144455, cell cycle genes",-0.38
same,RAD9B log2FC,"Gene 144715, cell cycle genes",-0.00292
same,KCTD11 log2FC,"Gene 147040, cell cycle genes",0.28
same,PYHIN1 log2FC,"Gene 149628, cell cycle genes",-0.0139
same,PPP1R1C log2FC,"Gene 151242, cell cycle genes",0.09
same,SGOL2 log2FC,"Gene 151246, cell cycle genes",0.87
same,SGOL1 log2FC,"Gene 151648, cell cycle genes",0.42
same,ROPN1B log2FC,"Gene 152015, cell cycle genes",0.0015
same,DAB2IP log2FC,"Gene 153090, cell cycle genes",0.03
same,CDCA2 log2FC,"Gene 157313, cell cycle genes",0.46
same,ESCO2 log2FC,"Gene 157570, cell cycle genes",0.48
same,SASS6 log2FC,"Gene 163786, cell cycle genes",0.49
same,WBP2NL log2FC,"Gene 164684, cell cycle genes",-0.0843
same,THAP5 log2FC,"Gene 168451, cell cycle genes",0.10
same,FLCN log2FC,"Gene 201163, cell cycle genes",0.78
same,STRA13 log2FC,"Gene 201254, cell cycle genes",-0.39
same,TUBB log2FC,"Gene 203068, cell cycle genes",-0.55
same,REEP3 log2FC,"Gene 221035, cell cycle genes",-0.29
same,C6orf89 log2FC,"Gene 221477, cell cycle genes",-0.38
same,SPDYA log2FC,"Gene 245711, cell cycle genes",-0.01
same,CDC26 log2FC,"Gene 246184, cell cycle genes",-0.67
same,ASPM log2FC,"Gene 259266, cell cycle genes",1.14
same,SLC39A5 log2FC,"Gene 283375, cell cycle genes",0.05
same,GAS2L3 log2FC,"Gene 283431, cell cycle genes",0.53
same,NSMCE2 log2FC,"Gene 286053, cell cycle genes",0.84
same,LIN9 log2FC,"Gene 286826, cell cycle genes",1.23
same,TMPRSS11A log2FC,"Gene 339967, cell cycle genes",0.0013
same,NUP43 log2FC,"Gene 348995, cell cycle genes",0.24
same,APITD1 log2FC,"Gene 378708, cell cycle genes",0.07
same,SETD8 log2FC,"Gene 387893, cell cycle genes",-0.04
same,PIM3 log2FC,"Gene 415116, cell cycle genes",0.64
same,PIWIL3 log2FC,"Gene 440822, cell cycle genes",-0.09
same,"expression of FOXO-dependent apoptosis genes including TNFSF10, BCL211 and FASLG (array)",MCF-7,did not significantly change
same,number of differentially expressed genes,[1],"more than 2,000"
same,number of induced (upregulated) genes,[1],"1,293"
same,number of repressed (downregulated) genes,[1],886
same,"CCND1, SPRY2 and MMP9 expression (array)","MCF-7, FOXO target genes",significantly downregulated
same,"expression of CCNG2, KLHL24, DDIT3, CITED2 and RICTOR (array)","MCF-7, FOXO target genes",significantly upregulated
same,MAD1L1 log2FC,cell cycle genes,-0.14
same,ACSL5 log2FC,"gene ACSL5 (51703), apoptosis genes",0.058
same,log2FC,"gene ACTR1A (Gene 10121), cell cycle genes",-0.13
same,ADAMTS20 log2FC,"gene ADAMTS20 (80070), apoptosis genes",-0.005
same,ADIPOQ log2FC,"gene ADIPOQ (9370), apoptosis genes",-0.040
same,ADRA1A log2FC,"gene ADRA1A (148), apoptosis genes",0.010
same,AGTR2 log2FC,"gene AGTR2 (186), apoptosis genes",0.044
same,log2FC AKAP8,"gene AKAP8 (Gene 10270), cell cycle genes",-0.20
same,ALB log2FC,"gene ALB (213), apoptosis genes",-0.044
same,ALOX12 log2FC,"gene ALOX12 (239), apoptosis genes",-0.144
same,ALX3 log2FC,"gene ALX3 (257), apoptosis genes",0.013
same,ALX4 log2FC,"gene ALX4 (60529), apoptosis genes",-0.036
same,log2FC,"gene ANAPC13 (Gene 25847), cell cycle genes",-0.30
same,ANKRD13C log2FC,"gene ANKRD13C (81573), apoptosis genes",-0.007
same,APBB1 log2FC,"gene APBB1 (322), apoptosis genes",0.356
same,APOH log2FC,"gene APOH (350), apoptosis genes",0.052
same,AQP1 log2FC,"gene AQP1 (358), apoptosis genes",-0.011
same,ARHGAP10 log2FC,"gene ARHGAP10 (79658), apoptosis genes",-0.061
same,ARHGEF6 log2FC,"gene ARHGEF6 (9459), apoptosis genes",-0.152
same,ARHGEF16 log2FC,"gene ARHGEF16 (27237), apoptosis genes",0.275
same,ARHGEF18 log2FC,"gene ARHGEF18 (23370), apoptosis genes",-0.106
same,ATOH1 log2FC,"gene ATOH1 (474), apoptosis genes",-0.042
same,ATPIF1 log2FC,"gene ATPIF1 (93974), apoptosis genes",0.131
same,log2FC,"gene ATR (Gene 545), cell cycle genes",0.11
same,log2FC,"gene BAD (Gene 572), cell cycle genes",0.53
same,BCL2L10 log2FC,"gene BCL2L10 (10017), apoptosis genes",-0.066
same,BDKRB2 log2FC,"gene BDKRB2 (624), apoptosis genes",-0.025
same,BIRC2 log2FC,"gene BIRC2 (329), apoptosis genes",-0.339
same,BIRC8 log2FC,"gene BIRC8 (112401), apoptosis genes",-0.038
same,BMP2 log2FC,"gene BMP2 (650), apoptosis genes",-0.233
same,log2FC,"gene BMP4 (Gene 652), cell cycle genes",0.22
same,BMP5 log2FC,"gene BMP5 (653), apoptosis genes",-0.019
same,BOK log2FC,"gene BOK (666), apoptosis genes",0.093
same,log2FC,"gene BRE (Gene 9577), cell cycle genes",-0.21
same,BTK log2FC,"gene BTK (695), apoptosis genes",0.086
same,log2FC,"gene BUB1B (Gene 701), cell cycle genes",0.15
same,C1QBP log2FC,"gene C1QBP (708), apoptosis genes",-0.112
same,C3orf38 log2FC,"gene C3orf38 (285237), apoptosis genes",-0.159
same,log2FC,"gene CAMK2B (Gene 816), cell cycle genes",0.01
same,CAPN3 log2FC,"gene CAPN3 (825), apoptosis genes",-0.026
same,log2FC CAPN3,"gene CAPN3 (Gene 825), cell cycle genes",-0.0259
same,CARD9 log2FC,"gene CARD9 (64170), apoptosis genes",0.028
same,CARD14 log2FC,"gene CARD14 (79092), apoptosis genes",0.056
same,log2FC,"gene CASP3 (Gene 836), cell cycle genes",0.31
same,CASP10 log2FC,"gene CASP10 (843), apoptosis genes",0.088
same,CASP12 log2FC,"gene CASP12 (120329), apoptosis genes",0.062
same,CCK log2FC,"gene CCK (885), apoptosis genes",-0.021
same,CCL19 log2FC,"gene CCL19 (6363), apoptosis genes",0.205
same,log2FC,"gene CCNB2 (Gene 9133), cell cycle genes",0.20
same,log2FC,"gene CCNH (Gene 902), cell cycle genes",0.14
same,log2FC,"gene CCNT2 (Gene 905), cell cycle genes",0.14
same,CD38 log2FC,"gene CD38 (952), apoptosis genes",0.042
same,CD40LG log2FC,"gene CD40LG (959), apoptosis genes",-0.017
same,CD248 log2FC,"gene CD248 (57124), apoptosis genes",0.046
same,log2FC,"gene CDC73 (Gene 79577), cell cycle genes",0.33
same,CDH1 log2FC,"gene CDH1 (999), apoptosis genes",0.556
same,log2FC CDH13,"gene CDH13 (Gene 1012), cell cycle genes",0.0463
same,log2FC CDK2AP1,"gene CDK2AP1 (Gene 8099), cell cycle genes",-0.15
same,CDK5 log2FC,"gene CDK5 (1020), apoptosis genes",0.184
same,log2FC CDK5RAP1,"gene CDK5RAP1 (Gene 51654), cell cycle genes",0.0451
same,log2FC CDKN2B,"gene CDKN2B (Gene 1030), cell cycle genes",-0.0758
same,log2FC,"gene CENPJ (Gene 55835), cell cycle genes",0.11
same,log2FC,"gene CENPK (Gene 64105), cell cycle genes",0.33
same,log2FC,"gene CETN3 (Gene 1070), cell cycle genes",0.33
same,log2FC,"gene CHEK2 (Gene 11200), cell cycle genes",0.11
same,CHIA log2FC,"gene CHIA (27159), apoptosis genes",-0.110
same,CIDEA log2FC,"gene CIDEA (1149), apoptosis genes",-0.071
same,CLC log2FC,"gene CLC (1178), apoptosis genes",-0.00153
same,CLEC5A log2FC,"gene CLEC5A (23601), apoptosis genes",-0.040
same,CLSPN log2FC,"gene CLSPN (63967), apoptosis genes",-0.114
same,CNTFR log2FC,"gene CNTFR (1271), apoptosis genes",-0.050
same,COL2A1 log2FC,"gene COL2A1 (1280), apoptosis genes",-0.00236
same,COL4A3 log2FC,"gene COL4A3 (1285), apoptosis genes",0.543
same,COMP log2FC,"gene COMP (1311), apoptosis genes",-0.113
same,log2FC,"gene COPS5 (Gene 10987), cell cycle genes",0.16
same,log2FC,"gene CRLF3 (Gene 51379), cell cycle genes",0.14
same,log2FC,"gene CSNK2B (Gene 1460), cell cycle genes",-0.06
same,CST3 log2FC,"gene CST3 (1471), apoptosis genes",0.253
same,CTLA4 log2FC,"gene CTLA4 (1493), apoptosis genes",0.009
same,CXCR4 log2FC,"gene CXCR4 (7852), apoptosis genes",0.375
same,CYR61 log2FC,"gene CYR61 (3491), apoptosis genes",-0.258
same,DAPK2 log2FC,"gene DAPK2 (23604), apoptosis genes",-1.207
same,DAXX log2FC,"gene DAXX (1616), apoptosis genes",-0.040
same,log2FC DAXX,"gene DAXX (Gene 1616), cell cycle genes",-0.04
same,log2FC,"gene DCLRE1B (Gene 64858), cell cycle genes",-0.35
same,log2FC,"gene DDX11 (Gene 1663), cell cycle genes",-0.27
same,DDX47 log2FC,"gene DDX47 (51202), apoptosis genes",-0.196
same,DEDD2 log2FC,"gene DEDD2 (162989), apoptosis genes",0.214
same,DFFB log2FC,"gene DFFB (1677), apoptosis genes",-0.041
same,log2FC,"gene DIAPH2 (Gene 1730), cell cycle genes",0.38
same,log2FC DIRAS3,"gene DIRAS3 (Gene 9077), cell cycle genes",0.0278
same,DMPK log2FC,"gene DMPK (1760), apoptosis genes",0.273
same,DNM2 log2FC,"gene DNM2 (1785), apoptosis genes",0.271
same,DPF1 log2FC,"gene DPF1 (8193), apoptosis genes",-0.250
same,log2FC ECD,"gene ECD (Gene 11319), cell cycle genes",-0.23
same,EGR3 log2FC,"gene EGR3 (1960), apoptosis genes",0.187
same,EGR4 log2FC,"gene EGR4 (1961), apoptosis genes",0.222
same,ELMO1 log2FC,"gene ELMO1 (9844), apoptosis genes",0.209
same,EPB41L3 log2FC,"gene EPB41L3 (23136), apoptosis genes",0.039
